From patent EP0050253A1, “Antibiotic pharmaceutical composition” (priority 1980, dated 1982)

Key:
Escherichia coli R^+TEM = assay: Agar dilution checkerboard growth test (Caseinpepton-Fleischextrakt-Bouillon-Agar, ~3x10^4 CFU/ml, 18 h, 37 °C); type: cell-based
Description: (§1) Ein Caseinpepton-Fleischextrakt-Bouillon-Agar mit einem Gehalt der angegebenen Menge der nachstehend angegebenen Substanzen A und B wird mit dem Testbakterium geimpft (~3x10^4CFU/ml). Nach der Inkubation während 18 Stunden bei 37 °C wird der Wuchszustand der Testbakterien untersucht. Die Ergebnisse sind in den Tabellen zusammengestellt. In jeder Tabelle bedeutet (+), daß das Testbakterium wächst, und (-) bedeutet, daß das Testbakterium nicht wächst. Man erkennt aus diesen Tabellen, daß die Kombination von D-α-[3-(2-p-Aminosulfonylanilino-4-hydroxy-5-pyrimidinyl)-ureido]-p-hydroxy-benzylpenicillin-Natrium = A bzw.

Kl. pneumoniae 1082 E = assay: as above; type: cell-based
Description: as §1

CC1(C)S[C@@H]2[C@H](NC(=O)[C@H](NC(=O)Nc3cnc(Nc4ccc(S(N)(=O)=O)cc4)nc3O)c3ccc(O)cc3)C(=O)N2[C@H]1C(=O)O [Substanz A, D-α-[3-(2-p-Aminosulfonylanilino-4-hydroxy-5-pyrimidinyl)-ureido]-p-hydroxy-benzylpenicillin-Natrium]
Wuchszustand der Testbakterien (Escherichia coli R^+TEM; C 0 µg/ml, A 0,5 µg/ml): +
Wuchszustand der Testbakterien (Escherichia coli R^+TEM; C 0 µg/ml, A 1 µg/ml): +
Wuchszustand der Testbakterien (Escherichia coli R^+TEM; C 0 µg/ml, A 2 µg/ml): +
Wuchszustand der Testbakterien (Escherichia coli R^+TEM; C 0 µg/ml, A 4 µg/ml): +
Wuchszustand der Testbakterien (Escherichia coli R^+TEM; C 0 µg/ml, A 8 µg/ml): +
Wuchszustand der Testbakterien (Escherichia coli R^+TEM; C 0 µg/ml, A 16 µg/ml): +
Wuchszustand der Testbakterien (Escherichia coli R^+TEM; C 0 µg/ml, A 32 µg/ml): +
Wuchszustand der Testbakterien (Escherichia coli R^+TEM; C 0 µg/ml, A 64 µg/ml): +
Wuchszustand der Testbakterien (Escherichia coli R^+TEM; C 0 µg/ml, A 128 µg/ml): +
Wuchszustand der Testbakterien (Kl. pneumoniae 1082 E; C 0 µg/ml, A 0,5 µg/ml): +
Wuchszustand der Testbakterien (Kl. pneumoniae 1082 E; C 0 µg/ml, A 0,25 µg/ml): +
Wuchszustand der Testbakterien (Kl. pneumoniae 1082 E; C 0 µg/ml, A 1 µg/ml): +
Wuchszustand der Testbakterien (Kl. pneumoniae 1082 E; C 0 µg/ml, A 2 µg/ml): +
Wuchszustand der Testbakterien (Kl. pneumoniae 1082 E; C 0 µg/ml, A 4 µg/ml): +
Wuchszustand der Testbakterien (Kl. pneumoniae 1082 E; C 0 µg/ml, A 8 µg/ml): +
Wuchszustand der Testbakterien (Kl. pneumoniae 1082 E; C 0 µg/ml, A 16 µg/ml): +
Wuchszustand der Testbakterien (Kl. pneumoniae 1082 E; C 0 µg/ml, A 32 µg/ml): +
Wuchszustand der Testbakterien (Kl. pneumoniae 1082 E; C 0 µg/ml, A 64 µg/ml): +

Cn1nnnc1SCC1=C(C(=O)O)N2C(=O)[C@@H](NC(=O)[C@H](NC(=O)Nc3cnc(Nc4ccc(S(N)(=O)=O)cc4)nc3O)c3ccc(O)cc3)[C@H]2SC1 [Substanz B]
Wuchszustand der Testbakterien (Escherichia coli R^+TEM; C 0 µg/ml, B 0,5 µg/ml): +
Wuchszustand der Testbakterien (Escherichia coli R^+TEM; C 0 µg/ml, B 0,06 µg/ml): +
Wuchszustand der Testbakterien (Escherichia coli R^+TEM; C 0 µg/ml, B 0,25 µg/ml): +
Wuchszustand der Testbakterien (Escherichia coli R^+TEM; C 0 µg/ml, B 1 µg/ml): +
Wuchszustand der Testbakterien (Escherichia coli R^+TEM; C 0 µg/ml, B 2 µg/ml): +
Wuchszustand der Testbakterien (Escherichia coli R^+TEM; C 0 µg/ml, B 4 µg/ml): +
Wuchszustand der Testbakterien (Escherichia coli R^+TEM; C 0 µg/ml, B 8 µg/ml): -
Wuchszustand der Testbakterien (Escherichia coli R^+TEM; C 0 µg/ml, B 0,125 µg/ml): +
Wuchszustand der Testbakterien (Kl. pneumoniae 1082 E; C 0 µg/ml, B 0,5 µg/ml): +
Wuchszustand der Testbakterien (Kl. pneumoniae 1082 E; C 0 µg/ml, B 0,25 µg/ml): +
Wuchszustand der Testbakterien (Kl. pneumoniae 1082 E; C 0 µg/ml, B 1 µg/ml): +
Wuchszustand der Testbakterien (Kl. pneumoniae 1082 E; C 0 µg/ml, B 2 µg/ml): +
Wuchszustand der Testbakterien (Kl. pneumoniae 1082 E; C 0 µg/ml, B 4 µg/ml): +
Wuchszustand der Testbakterien (Kl. pneumoniae 1082 E; C 0 µg/ml, B 8 µg/ml): +
Wuchszustand der Testbakterien (Kl. pneumoniae 1082 E; C 0 µg/ml, B 16 µg/ml): +
Wuchszustand der Testbakterien (Kl. pneumoniae 1082 E; C 0 µg/ml, B 32 µg/ml): +
Wuchszustand der Testbakterien (Kl. pneumoniae 1082 E; C 0 µg/ml, B 64 µg/ml): +

O=C(O)[C@H]1/C(=C/CO)O[C@@H]2CC(=O)N21 [Substanz C, Lithium-Z-(2R,5R)-3-(ß-hydroxyäthyliden)-7-oxo-4-oxa-1-aza-bicyclo[3,2,0]-heptan-2-carboxylat, reference compound]
Wuchszustand der Testbakterien (Escherichia coli R^+TEM; C 0,5 µg/ml, B 0 µg/ml): +
Wuchszustand der Testbakterien (Escherichia coli R^+TEM; C 0,25 µg/ml, B 0 µg/ml): +
Wuchszustand der Testbakterien (Escherichia coli R^+TEM; C 1 µg/ml, A 0 µg/ml): +
Wuchszustand der Testbakterien (Escherichia coli R^+TEM; C 1 µg/ml, B 0 µg/ml): +
Wuchszustand der Testbakterien (Escherichia coli R^+TEM; C 2 µg/ml, A 0 µg/ml): +
Wuchszustand der Testbakterien (Escherichia coli R^+TEM; C 2 µg/ml, B 0 µg/ml): +
Wuchszustand der Testbakterien (Escherichia coli R^+TEM; C 4 µg/ml, A 0 µg/ml): +
Wuchszustand der Testbakterien (Escherichia coli R^+TEM; C 4 µg/ml, B 0 µg/ml): +
Wuchszustand der Testbakterien (Escherichia coli R^+TEM; C 8 µg/ml, A 0 µg/ml): +
Wuchszustand der Testbakterien (Escherichia coli R^+TEM; C 8 µg/ml, B 0 µg/ml): +
Wuchszustand der Testbakterien (Escherichia coli R^+TEM; C 16 µg/ml, A 0 µg/ml): +
Wuchszustand der Testbakterien (Escherichia coli R^+TEM; C 16 µg/ml, B 0 µg/ml): +
Wuchszustand der Testbakterien (Escherichia coli R^+TEM; C 32 µg/ml, A 0 µg/ml): -
Wuchszustand der Testbakterien (Escherichia coli R^+TEM; C 32 µg/ml, B 0 µg/ml): -
Wuchszustand der Testbakterien (Kl. pneumoniae 1082 E; C 1 µg/ml, A 0 µg/ml): +
Wuchszustand der Testbakterien (Kl. pneumoniae 1082 E; C 1 µg/ml, B 0 µg/ml): +
Wuchszustand der Testbakterien (Kl. pneumoniae 1082 E; C 2 µg/ml, A 0 µg/ml): +
Wuchszustand der Testbakterien (Kl. pneumoniae 1082 E; C 2 µg/ml, B 0 µg/ml): +
Wuchszustand der Testbakterien (Kl. pneumoniae 1082 E; C 4 µg/ml, A 0 µg/ml): +
Wuchszustand der Testbakterien (Kl. pneumoniae 1082 E; C 4 µg/ml, B 0 µg/ml): +
Wuchszustand der Testbakterien (Kl. pneumoniae 1082 E; C 8 µg/ml, A 0 µg/ml): +
Wuchszustand der Testbakterien (Kl. pneumoniae 1082 E; C 8 µg/ml, B 0 µg/ml): +
Wuchszustand der Testbakterien (Kl. pneumoniae 1082 E; C 16 µg/ml, A 0 µg/ml): +
Wuchszustand der Testbakterien (Kl. pneumoniae 1082 E; C 16 µg/ml, B 0 µg/ml): +
Wuchszustand der Testbakterien (Kl. pneumoniae 1082 E; C 32 µg/ml, A 0 µg/ml): +
Wuchszustand der Testbakterien (Kl. pneumoniae 1082 E; C 32 µg/ml, B 0 µg/ml): +
Wuchszustand der Testbakterien (Kl. pneumoniae 1082 E; C 64 µg/ml, A 0 µg/ml): -
Wuchszustand der Testbakterien (Kl. pneumoniae 1082 E; C 64 µg/ml, B 0 µg/ml): -
